Assay results reported in publication PMC9925730, “Controlled sequential in situ self-assembly and disassembly of a fluorogenic cisplatin prodrug for cancer theranostics” (Nature Communications, 2023).
Values joined by “and” are separate entries in the source; they are usually repeats but may differ in a detail not shown here. Equal entries are not always repeated.

Key:
[1] = Blood analysis in healthy mice (blood count, biochemistry); type: in vivo; parameters: BUN / CRE / WBC / HGB / HCT / MCH / MCHC / MCV / RBC / ALT / AST / TP / T-Bil / Alb: unit not given here; details: for ALT / AST / Alb / BUN / CRE / HCT / MCH / MCHC / MCV / PLT / RBC / T-Bil / TP / WBC: Supplementary Fig. 36
[2] = test system: orthotopic HepG2/Luc liver tumors; assay: Chemotherapy of orthotopic liver tumors (BL imaging, ex vivo BL and FL imaging);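 as to tumor BL intensity of liver: bioluminescence quantified by ROI over liver region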; type: in vivo, mice; details: for tumor BL over the course of treatment: 2.25 mg kg^−1 Pt i.v. on day 0, 3, 6, 9, 12; for tumor BL intensity of liver: day 15; for Normalized FL intensity of mCy (ex vivo liver tumor, Fig. 5h): day 15, livers sprayed with P-CyPt 10 μM, normalized to PBS group; for Normalized BL intensity (ex vivo liver tumor, Fig. 5h): day 15, normalized to PBS group
Protocol: During the treatment, the body weights of mice were also measured every three days. On day 15, all mice were sacrificed, the whole liver were excised and photographed. Then, P-CyPt (10 μM) and D-luciferin (5 mM) were sprayed on the surface of each liver to performed ex vivo BL and NIR FL imaging. The BL images were acquired at 10 min using the BL imaging mode (Open), and the NIR FL images were acquired at 30 min, using a 660 nm excitation filter and a 750 ± 50 nm emission filter. The average BL and FL intensities were quantified by the ROIs measurement in the tumor region of liver using the Living Image Software (4.5.2, PerkinElmer, MA, U.S.A). Each experiment was conducted in four mice.

HeLa cells = assay: Depletion of intracellular GSH; type: cell-based, human; parameters: key to Intracellular GSH level after treatment (Supplementary Table S2): GSH content in fmol/cell; details: for [GSH] after treatment / [GSH] depletion: HeLa cells, Pt drug 2 h, then fresh medium 24 h; for Intracellular GSH level after treatment (Supplementary Table S2): blank (before treatment) mean 12.88; for GSH-depletion: relative to blank (before treatment)
Protocol: Supplementary Tables 1-13 Supplementary Table 1. ICP-OES analysis of Pt in HeLa cells. a Pt drugs Pt element per cell Percentage of Pt element (fmol/cell) b taken up by cells (%) c P-CyPt 24.60 ± 3.5 36.9 ± 5.3 […] 1.73 ± 0.2 2.6 ± 0.3 CDDP 0.73 ± 0.09 1.1 ± 0.1 P-CyPt + Na3VO4 0.07 ± 0.01 0.1 ± 0.01 a HeLa cells were untreated or pre-treated with Na3VO4 (10 mM) for 20 min and then incubated with indicated Pt drug (10 μM) for 1 h. Then, the cells were trypsinized, collected, and the cell numbers were counted and digested with trace metal concentrated HNO3 (65~70%) and HCl (36~38%). The amount of Pt element was determined by ICP-OES. b Pt per cell represents the average amount of Pt element in one HeLa cell, which was calculated by dividing the total amount of Pt element in cells by the cell number. c Percentage of Pt taken up by cells was calculated by dividing the total amount of Pt elements in cells by the amount of Pt drugs added. Values denote mean ± s.d. (n = 3 independent experiments). Supplementary Table 2. Comparison of the intracellular GSH in HeLa cells before and after incubation with different Pt drugs. a Pt [GSH] before treatment [GSH] drugs (fmol/cell) [GSH] after treatment (fmol/cell) depletion b CDDP 11.81 ± 1.7 8.3% […] 11.71 ± 1.6 9.1% 12.88 ± 1.5 P-CyPt 8.07 ± 0.8 37.3% a HeLA cells were untreated or treated with different Pt drugs for 2 h. The cells were washed with PBS for three times, and replaced with fresh medium and incubated for another 24 h. After that, the cells were trypsinized, centrifuged and counted. The cell pellets were dispersed, lysed via sonication, and ultracentrifuged to obtain supernatant. The GSH content (nPt) in the supernatant was measured by a reported detection method. The content of GSH per cell ([GSH]) before and after treatment (nB and nA) was calculated according to the formula: […] GSH depletion: The GSH depletion (Δ) was calculated according to the formula: %Δ = (nB - nA)/ nB. Values denote mean ± s.d. (n = 3 independent experiments). 27 page 45: DNA […]-stained with 5x loading buffer in the TAE buffer and the resultant gel visualized by Gel DocTM XR+ (Bio-Rad) system. Depletion of intracellular GSH. HeLa cells (2×10^5 cells/well) in 2 mL DMEM medium were seeded onto 6-well plates and allowed to grow overnight. Then cells were then treated with […], or CDDP (10 μM), respectively. After that, cells were digested with trypsin and washed with PBS for 3 times. Then, cell pellets were dispersed in pre-chilled extraction solution (1 mL, 0.1 M potassium phosphate buffer containing 0.1% Triton, 0.6% sulfosalicylic acid, and 5 mM EDTA, pH 7.4) and sonicated with an US probe on ice for 2 min. To ensure that cells were lysed completely, the solution was further frozen and thawed twice. Finally, the solution was centrifuged at 3000 g at 4 °C for 4 min. The supernatant was taken to measure the GSH content using commercial GSH detection kit, according to a reported procedure (Nat. Protoc. 2006, 1, 3159). MCTS imaging and cytotoxicity. The three-dimensional multicellular spheroids (MCTS) of HeLa were cultured according to the method previously described (Nat. Protoc. 2009, 4, 309) with minor modifications. Briefly, a well of 96-well plates was covered by 50 μL of hot agarose solution (1.5 w/v %) and then cooled to form a layer of agaropectin. HeLa cells were seeded to the agaropectin-coated well at a density of 2×10^3 cells/well, and incubated to grow into spheroids. DMEM medium was replaced with fresh medium every 2 days until the diameter of tumor spheroids grows near 400 μm. Then, the MCSs were incubated with 10 μM P-CyPt or […] for 1 h, washed with PBS for 3 times. Blank DMEM medium was added, and incubated for another 24 h. After that, PI (4 μM) was added and incubated for 1 h. The medium was removed, and the spheroids were gently washed with PBS (×1), which was then carefully transferred to a glass bottom dish. […]

[3] = Supplementary Fig. 36, first HGB block, individual mice
[4] = Supplementary Fig. 36, first HGB block, mean of 3 mice

[NH2][Pt]([NH2])([Cl])[Cl] [CDDP, cisplatin]
HGB [1, 3]: 90 (2×) and 67 | HGB [1, 4]: 82.333 | ALT ([1]; individual mice): 45.502 and 43.964 and 66.025 | AST ([1]; individual mice): 126.05 and 97.802 and 100.507 | Alb ([1]; individual mice): 26.65 and 25.18 and 35.22 | BUN ([1]; individual mice): 18.956 and 37.908 and 23.94 | CRE ([1]; individual mice): 19.831 and 68.509 and 25.561 | HCT ([1]; individual mice): 35.4 and 40.2 and 41.2 | MCH ([1]; individual mice): 16.6 and 15.9 and 18.6 | MCHC ([1]; individual mice): 350 and 331 and 324 | MCV ([1]; individual mice): 51.5 and 49.5 and 51.3 | PLT ([1]; individual mice): 591 and 289 and 329 | RBC ([1]; individual mice): 7.14 and 6.54 and 6.58 | T-Bil ([1]; individual mice): 21.47 and 18.852 and 18.358 | TP ([1]; individual mice): 42.81 and 40.21 and 50.47 | WBC ([1]; individual mice): 1.9 and 1.2 and 1.6 | ALT ([1]; mean of 3 mice): 51.830 | AST ([1]; mean of 3 mice): 108.120 | Alb ([1]; mean of 3 mice): 29.017 | BUN ([1]; mean of 3 mice): 26.935 | CRE ([1]; mean of 3 mice): 37.967 | HCT ([1]; mean of 3 mice): 38.933 | MCH ([1]; mean of 3 mice): 17.033 | MCHC ([1]; mean of 3 mice): 335.000 | MCV ([1]; mean of 3 mice): 50.767 | PLT ([1]; mean of 3 mice): 403.000 | RBC ([1]; mean of 3 mice): 6.753 | T-Bil ([1]; mean of 3 mice): 19.560 | TP ([1]; mean of 3 mice): 44.497 | WBC ([1]; mean of 3 mice): 1.567 | tumor BL over the course of treatment [2]: markedly increased | tumor BL intensity of liver [2]: 861747.5 | Normalized FL intensity of mCy (ex vivo liver tumor, Fig. 5h) [2]: 0.90 | Normalized BL intensity (ex vivo liver tumor, Fig. 5h) [2]: 0.87 | [GSH] after treatment (HeLa cells): 11.81 ± 1.7 fmol/cell | [GSH] depletion (HeLa cells): 8.3% and ~ 8.3% | Intracellular GSH level after treatment (Supplementary Table S2) (HeLa cells; individual samples): 10.2784 and 11.5154 and 13.6407 | Intracellular GSH level after treatment (Supplementary Table S2) (HeLa cells; mean of 3 samples): 11.81 | GSH-depletion (HeLa cells): 8.30%

CC1(C)C(/C=C/C2=C3Oc4cc(OP(=O)(O)O)c(Cl)cc4C=C3CCC2)=[N+](CCCNC(=O)[C@@H](Cc2ccccc2)NC(=O)[C@@H](Cc2ccccc2)NC(=O)CCC(=O)[O][Pt]([NH2])([NH2])([OH])([Cl])[Cl])c2ccccc21 [P-CyPt]
HGB [1, 3]: 124 and 128 and 97 | HGB [1, 4]: 116.333 | HGB ([1]; Supplementary Fig. 36, second HGB block (between AST and TP), mean of 3 mice): 3.426 | ALT ([1]; individual mice): 64.638 and 69.471 and 57.14 | AST ([1]; individual mice): 93.668 and 95.637 and 124.668 | Alb ([1]; individual mice): 28.06 and 34.76 and 32.73 | BUN ([1]; individual mice): 22.456 and 18.592 and 16.632 | CRE ([1]; individual mice): 23.568 and 18.005 and 14.662 | HCT ([1]; individual mice): 42 and 36 and 35.3 | MCH ([1]; individual mice): 18.3 and 18.9 and 16.6 | MCHC ([1]; individual mice): 315 and 345 and 304 | MCV ([1]; individual mice): 50.3 and 49.6 and 53.5 | PLT ([1]; individual mice): 463 and 494 and 673 | RBC ([1]; individual mice): 7.22 and 7.49 and 6.74 | T-Bil ([1]; individual mice): 20.416 and 17.788 and 25.91 | TP ([1]; individual mice): 41.72 and 48.65 and 44.25 | WBC ([1]; individual mice): 2.3 and 2.6 and 1.5 | ALT ([1]; mean of 3 mice): 63.750 | AST ([1]; mean of 3 mice): 104.658 | Alb ([1]; mean of 3 mice): 31.850 | BUN ([1]; mean of 3 mice): 19.227 | CRE ([1]; mean of 3 mice): 18.745 | HCT ([1]; mean of 3 mice): 37.767 | MCH ([1]; mean of 3 mice): 17.933 | MCHC ([1]; mean of 3 mice): 321.333 | MCV ([1]; mean of 3 mice): 51.133 | PLT ([1]; mean of 3 mice): 543.333 | RBC ([1]; mean of 3 mice): 7.150 | T-Bil ([1]; mean of 3 mice): 21.371 | TP ([1]; mean of 3 mice): 44.873 | WBC ([1]; mean of 3 mice): 2.133 | blood count and biochemistry values ([1]; healthy nude mice, 1 day post i.v. 2.25 mg kg-1 Pt): all the values were within the normal reference | tumor BL over the course of treatment [2]: did not obviously increase | tumor BL intensity of liver [2]: 9376.5 | metastatic tumor foci in the livers ([2]; day 15, ex vivo BL imaging): No metastatic tumor foci | Normalized FL intensity of mCy (ex vivo liver tumor, Fig. 5h) [2]: 0.23 | Normalized BL intensity (ex vivo liver tumor, Fig. 5h) [2]: 0.22 | [GSH] after treatment (HeLa cells): 8.07 ± 0.8 fmol/cell | [GSH] depletion (HeLa cells): 37.3% and ~ 37.3% | Intracellular GSH level after treatment (Supplementary Table S2) (HeLa cells; individual samples): 7.3478 and 7.9326 and 8.9304 | Intracellular GSH level after treatment (Supplementary Table S2) (HeLa cells; mean of 3 samples): 8.07 | GSH-depletion (HeLa cells): 37.30%
